Experimental data: the NIST ThermoML archive (doi:10.1016/j.fluid.2011.01.018)
± gives the expanded uncertainty stated by the source.

Key:
[1] = 101 kPa, Liquid, Vibrating tube method
[2] = xn = mol fraction of the nth substance listed; conditions: 101 kPa, Liquid, Vibrating tube method

CC(C)CC(C)(C)C [2,2,4-trimethylpentane]
[1]
Conditions | mass density [kg/m3]
293 K | 691.88 ± 0.19
303 K | 683.64 ± 0.2
313 K | 675.3 ± 0.2
323 K | 666.84 ± 0.2

CC(C)CC(C)(C)C [2,2,4-trimethylpentane] + c1ccccc1
mass density [kg/m3], [2]
Conditions | x2 = 0 | x2 = 0.1248 | x2 = 0.1642 | x2 = 0.3682 | x2 = 0.4538 | x2 = 0.502 | x2 = 0.5388 | x2 = 0.6023 | x2 = 0.6896 | x2 = 0.9443
293 K | 691.88 ± 0.19 | 704.06 ± 0.19 | 708.26 ± 0.19 | 733.74 ± 0.19 | 746.53 ± 0.18 | 754.34 ± 0.18 | 760.7 ± 0.18 | 772.44 ± 0.18 | 790.37 ± 0.18 | 859.13 ± 0.17
303 K | 683.64 ± 0.2 | 695.66 ± 0.19 | 699.8 ± 0.19 | 724.94 ± 0.19 | 737.57 ± 0.19 | 745.27 ± 0.18 | 751.54 ± 0.18 | 763.15 ± 0.18 | 780.86 ± 0.18 | 848.73 ± 0.17
313 K | 675.3 ± 0.2 | 687.16 ± 0.2 | 691.24 ± 0.2 | 716.05 ± 0.19 | 728.51 ± 0.19 | 736.12 ± 0.19 | 742.33 ± 0.19 | 753.77 ± 0.18 | 771.25 ± 0.18 | 838.26 ± 0.17
323 K | 666.84 ± 0.2 | 678.53 ± 0.2 | 682.55 ± 0.2 | 707.04 ± 0.19 | 719.33 ± 0.19 | 726.85 ± 0.19 | 732.96 ± 0.19 | 744.28 ± 0.18 | 761.54 ± 0.18 | 827.7 ± 0.17

c1ccccc1 [benzene]
[1]
Conditions | mass density [kg/m3]
293 K | 878.98 ± 0.16
303 K | 868.3 ± 0.16
313 K | 857.57 ± 0.16
323 K | 846.76 ± 0.17

c1ccccc1 [benzene] + C1CCCCC1
[2], x1 = 1
Conditions | mass density [kg/m3]
293 K | 878.98 ± 0.16
303 K | 868.3 ± 0.16
313 K | 857.57 ± 0.16
323 K | 846.76 ± 0.17

c1ccccc1 [benzene] + CC(C)CC(C)(C)C
[2], x1 = 1
Conditions | mass density [kg/m3]
293 K | 878.98 ± 0.16
303 K | 868.3 ± 0.16
313 K | 857.57 ± 0.16
323 K | 846.76 ± 0.17

C1CCCCC1 [cyclohexane]
[1]
Conditions | mass density [kg/m3]
293 K | 778.54 ± 0.16
303 K | 769.13 ± 0.16
313 K | 759.6 ± 0.16
323 K | 749.94 ± 0.17

C1CCCCC1 [cyclohexane] + c1ccccc1
mass density [kg/m3], [2]
Conditions | 293 K | 303 K | 313 K | 323 K
x2 = 0 | 778.54 ± 0.16 | 769.13 ± 0.16 | 759.6 ± 0.16 | 749.94 ± 0.17
x2 = 0.1 | 784.99 ± 0.16 | 775.47 ± 0.16 | 765.87 ± 0.16 | 756.14 ± 0.16
x2 = 0.1805 | 790.71 ± 0.16 | 781.14 ± 0.16 | 771.46 ± 0.16 | 761.67 ± 0.16
x2 = 0.2347 | 794.92 ± 0.16 | 785.3 ± 0.16 | 775.57 ± 0.16 | 765.73 ± 0.16
x2 = 0.3029 | 800.47 ± 0.16 | 790.79 ± 0.16 | 781 ± 0.16 | 771.1 ± 0.16
x2 = 0.3801 | 807.1 ± 0.16 | 797.33 ± 0.16 | 787.47 ± 0.16 | 777.5 ± 0.16
x2 = 0.4453 | 813.09 ± 0.16 | 803.25 ± 0.16 | 793.32 ± 0.16 | 783.27 ± 0.16
x2 = 0.5223 | 820.56 ± 0.16 | 810.63 ± 0.16 | 800.62 ± 0.16 | 790.48 ± 0.16
x2 = 0.5814 | 826.62 ± 0.16 | 816.62 ± 0.16 | 806.53 ± 0.16 | 796.34 ± 0.16
x2 = 0.6563 | 834.72 ± 0.16 | 824.62 ± 0.16 | 814.44 ± 0.16 | 804.14 ± 0.16
x2 = 0.7135 | 841.21 ± 0.16 | 831.03 ± 0.16 | 820.77 ± 0.16 | 810.41 ± 0.16
x2 = 0.7654 | 847.44 ± 0.16 | 837.18 ± 0.16 | 826.83 ± 0.16 | 816.41 ± 0.16
x2 = 0.8191 | 854.16 ± 0.16 | 843.82 ± 0.16 | 833.39 ± 0.16 | 822.89 ± 0.16
x2 = 0.8771 | 861.75 ± 0.16 | 851.31 ± 0.16 | 840.79 ± 0.16 | 830.19 ± 0.16
x2 = 0.9161 | 867.03 ± 0.16 | 856.52 ± 0.16 | 845.95 ± 0.16 | 835.28 ± 0.17
